How the values were obtained:
[1] = Period 2: urine PK (renal clearance, urinary recovery); type: in vivo, human
Method: After a washout of 8–9 days, participants returned to the clinic for Day − 1 of Period 2. On Day 1 of Period 2, after a fast of ≥ 10 h, participants received a single nominal dose of 160 mg (~ 100 µCi; whole body effective dose of 5.3 mrem for a 70-kg human) [^14C]-mobocertinib as a 70 mL oral solution. The actual doses administered ranged from 161 to 163 mg (92.4 to 93.9 µCi). Participants stayed in the clinic from Day − 1 until a discharge criterion (≥ 80% of the total administered radioactive dose was recovered in urine and feces or excretion of radioactivity in urine and feces combined had declined to ≤ 1% of the total administered dose per day for ≥ 2 consecutive intervals) was met, or up to 10 days postdose. To measure the total radioactivity and concentrations of mobocertinib, AP32960, and AP32914 in whole blood and plasma, 4 blood samples were collected predose, and at 0.5, 1, 2, 3, 4, 5, 6, 8, 12, 24, 36, 48, 72, 96, 120, 144, 168, 192, 216, and 240 h postdose; a fifth blood sample was collected for plasma metabolite profiling at predose and 1, 2, 4, 6, 12, 24, 48, 72, 96, 120, and 168 h postdose. Feces and urine were collected predose (feces within 48 h and urine within 24 h prior to dosing), 0–24 h (urine from 0–12 and 12–24 h), and then at 24-hour intervals up to 240 h postdose or until a discharge criterion was met. […] These 2 participants continued with at-home fecal sample collections. […]
Plasma, whole blood, and urine samples were assayed for mobocertinib, AP32960, and AP32914 concentrations using liquid chromatography-tandem mass spectrometry (Q2 Solutions, Ithaca, New York, USA). […] Urine and fecal samples were assayed for total radioactivity following the IV dose of [^14C]-mobocertinib in Period 1, and whole blood, plasma, urine, and fecal samples were assayed for total radioactivity following the oral dose of [^14C]-mobocertinib in Period 2 using liquid scintillation counting (LSC; Celerion, Lincoln, Nebraska, USA; LLOQs: Period 1 urine: 0.115–0.118 ng eq/g, feces: 0.720–0.759 ng eq/g; Period 2 whole blood: 87.3–112 ng eq/g, plasma: 116–132 ng eq/mL, urine: 37.8–46.8 ng eq/g, feces: 110–336 ng eq/g across participants). Urine and fecal samples collected in Period 1 that had total radioactivity concentration equivalents below the LLOQ of the Celerion LSC assay were sent to Pharmaron for measurement by AMS (LLOQ: urine: 0.0000253–0.00111 ng eq/g; feces: 0.000404–0.0278 ng eq/g across participants). […]
PK parameters for analytes in urine and feces were calculated using SAS Version 9.4 and included the cumulative amounts and percentages of the administered radioactive dose excreted as [^14C]-mobocertinib, [^14C]-AP32960, and [^14C]-AP32914 in urine and feces following IV dosing in Period 1 and oral dosing in Period 2. […]

[2] = Period 2: mass balance (total radioactivity in urine and feces); type: in vivo, human
Method: After a washout of 8–9 days, participants returned to the clinic for Day − 1 of Period 2. On Day 1 of Period 2, after a fast of ≥ 10 h, participants received a single nominal dose of 160 mg (~ 100 µCi; whole body effective dose of 5.3 mrem for a 70-kg human) [^14C]-mobocertinib as a 70 mL oral solution. The actual doses administered ranged from 161 to 163 mg (92.4 to 93.9 µCi). Participants stayed in the clinic from Day − 1 until a discharge criterion (≥ 80% of the total administered radioactive dose was recovered in urine and feces or excretion of radioactivity in urine and feces combined had declined to ≤ 1% of the total administered dose per day for ≥ 2 consecutive intervals) was met, or up to 10 days postdose. To measure the total radioactivity and concentrations of mobocertinib, AP32960, and AP32914 in whole blood and plasma, 4 blood samples were collected predose, and at 0.5, 1, 2, 3, 4, 5, 6, 8, 12, 24, 36, 48, 72, 96, 120, 144, 168, 192, 216, and 240 h postdose; a fifth blood sample was collected for plasma metabolite profiling at predose and 1, 2, 4, 6, 12, 24, 48, 72, 96, 120, and 168 h postdose. Feces and urine were collected predose (feces within 48 h and urine within 24 h prior to dosing), 0–24 h (urine from 0–12 and 12–24 h), and then at 24-hour intervals up to 240 h postdose or until a discharge criterion was met. […] These 2 participants continued with at-home fecal sample collections. One participant provided fecal samples until Day 13 (264–288 h interval) and one participant provided fecal samples until Day 19 (408–432 h interval), after which they met a discharge criterion.
Plasma, whole blood, and urine samples were assayed for mobocertinib, AP32960, and AP32914 concentrations using liquid chromatography-tandem mass spectrometry (Q2 Solutions, Ithaca, New York, USA). The analytical range for each analyte was 0.250 to 500 ng/mL in whole blood and plasma, and 1.00 to 1000 ng/mL in urine. […] Urine and fecal samples were assayed for total radioactivity following the IV dose of [^14C]-mobocertinib in Period 1, and whole blood, plasma, urine, and fecal samples were assayed for total radioactivity following the oral dose of [^14C]-mobocertinib in Period 2 using liquid scintillation counting (LSC; Celerion, Lincoln, Nebraska, USA; LLOQs: Period 1 urine: 0.115–0.118 ng eq/g, feces: 0.720–0.759 ng eq/g; Period 2 whole blood: 87.3–112 ng eq/g, plasma: 116–132 ng eq/mL, urine: 37.8–46.8 ng eq/g, feces: 110–336 ng eq/g across participants). Urine and fecal samples collected in Period 1 that had total radioactivity concentration equivalents below the LLOQ of the Celerion LSC assay were sent to Pharmaron for measurement by AMS (LLOQ: urine: 0.0000253–0.00111 ng eq/g; feces: 0.000404–0.0278 ng eq/g across participants). The LSC and AMS assays were not cross-validated.
PK parameters for analytes in urine and feces were calculated using SAS Version 9.4 and included the cumulative amounts and percentages of the administered radioactive dose excreted as [^14C]-mobocertinib, [^14C]-AP32960, and [^14C]-AP32914 in urine and feces following IV dosing in Period 1 and oral dosing in Period 2. Renal clearance (CLR) was calculated as the cumulative amount of radiolabeled mobocertinib, AP32960, or AP32914 recovered in urine divided by the plasma AUC to the time of the last common time point at which an analyte was quantifiable in both urine and plasma for individual participants (AUCCLR) following oral dosing of [^14C]-mobocertinib in Period 2. Mass balance was defined as the percentage of total radioactivity recovered in urine and feces combined relative to the total amount of the administered radioactive dose.

[3] = Period 2, oral solution 160 mg (~100 µCi) [14C]-mobocertinib, geometric mean

Row | radioactive dose recovered in urine as mobocertinib, AP32960 and AP32914 combined ([1]; Period 2, oral solution 160 mg [14C]-mobocertinib) | total oral radioactive dose recovered in urine as analyte ([1]; Period 2, oral solution 160 mg [14C]-mobocertinib, geometric mean) | cumulative percentage of the radioactive dose recovered in feces (total radioactivity) [2, 3] | cumulative percentage of the radioactive dose recovered in urine (total radioactivity) [2, 3] | cumulative percentage of the radioactive dose recovered in urine and feces combined ([2]; Period 2, oral solution 160 mg (~100 µCi) [14C]-mobocertinib, geometric mean, 432-hour collection interval) | Compound | radioactive dose recovered in urine as mobocertinib, AP32960 and AP32914 combined ([1]; male, human, in vivo, po) | CL renal ([1]; male, human, in vivo, po, 160 mg) | administered radioactive dose unaccounted for ([2]; male, human, in vivo, po) | cumulative percentage of the radioactive dose recovered in feces (total radioactivity) ([2]; male, human, in vivo, po) | cumulative percentage of the radioactive dose recovered in urine (total radioactivity) ([2]; male, human, in vivo, po)
1 | 1.13% | 0.39% | 76.0% | 3.57% | 79.6% | [^14C]-mobocertinib |  |  |  |  | 
2 |  |  |  |  |  | C=CC(=O)Nc1cc(Nc2ncc(C(=O)OC(C)C)c(-c3cn(C)c4ccccc34)n2)c(OC)cc1N(C)CCN(C)C [Mobocertinib] | 1.13% | 11 mL/min | Approximately 20% | 76.0% | 3.57%

Source: PMC11327196, “A phase 1 study to assess the absolute bioavailability, mass balance, pharmacokinetics, metabolism, and excretion of [^14C]-mobocertinib, an oral inhibitor of EGFR exon 20 insertion mutations, in healthy participants” (Investigational New Drugs, 2024)
